From ChEMBL document CHEMBL1136389, “Structure-activity relationship of a novel class of naphthyl amide KATP channel openers” (Bioorg Med Chem Lett, 2003)

Legend:
Rattus norvegicus [1] = assay: In vivo concentration required for the inhibition of unstable contraction in anesthetized obstructed male rat, administered intravenously at a dose of 30 nM/Kg; format: functional
Rattus norvegicus [2] = assay: In vivo concentration required for the reduction of mean arterial pressure in anesthetized obstructed male rat, administered intravenously at a dose of 50 nM/Kg; format: functional, Artery
[3] = Selectivity ratio for the reduction of mean arterial pressure to that of unstable […] in anesthetized obstructed male rat; format: functional, Artery
Rattus norvegicus [4] = assay: In vivo concentration required for the 10% reduction of mean arterial pressure in anesthetized obstructed male rat, administered intravenously at a dose of 50 nM/Kg; format: functional, Artery

Row | Structure (SMILES) | ED35 (Rattus norvegicus [1]) [µM/kg] | ED10 (Rattus norvegicus [2]) [µM/kg] | Selectivity ratio [3] | ED10 (Rattus norvegicus [4]) [µM/kg]
1 | CCc1cc(C#N)ccc1Nc1c(N[C@H](C)C(C)(C)C)c(=O)c1=O | 0.1 | 0.12 | 1.2 | 
2 | CC(=O)Nc1c(C(O)(C(F)(F)F)C(F)(F)F)ccc2ccccc12 | 0.03 |  | 1.7 | 0.05
3 | C[C@](O)(C(=O)Nc1ccc(C(=O)c2ccccc2)cc1)C(F)(F)F [ZD-6169] | 1.4 | 1.5 | 1.1 | 
